Literature values in US11801275B2, “Compositions and methods for common colds” (M. ALPHABET 3, LLC, priority 2017, dated 2023).
Read-outs that look alike come from different tables or passages of the source.

Key:
[1] = tested on: upper respiratory tract infections
[2] = tested on: common cold

Row | Structure (SMILES) | mean level of 25-hydroxy vitamin D ([1]; after oral vitamin D3 200,000 IU then 100,000 IU, increased from 29 (SD, 9) ng/mL, maintained throughout the study) | difference versus placebo in upper respiratory tract infections, days of missed work, duration and severity of symptoms ([1]; irrespective of season) | pooled risk ratio (RR) of developing a cold whilst taking vitamin C regularly ([2]; five trials, 598 marathon runners, skiers and soldiers on subarctic exercises, 95% CI 0.35 to 0.64) | pooled risk ratio (RR) of developing a cold whilst taking vitamin C regularly ([2]; general community trials, 10,708 participants, 95% CI 0.94 to 1.00) | effect on the duration or severity of colds ([2]; therapeutic trials)
1 | C=C1CC[C@H](O)C/C1=C/C=C1\CCC[C@]2(C)[C@@H]([C@H](C)CCCC(C)C)CC[C@@H]12 [vitamin D3] | greater than 48 ng/mL | no statistically significant difference |  |  | 
2 | O=C1O[C@H]([C@@H](O)CO)C(O)=C1O [vitamin C, ascorbic acid] |  |  | 0.48 | 0.97 | no consistent effect
